The assay relates to Influenza A virus. The assay is classed as functional, organism-based, Influenza A virus (A/Parma/24/2009(H1N1)). As to conditions: MDCK, 48 h.

The term EC50 denotes the concentration that produces a half-maximal response. Low values mean an effect from little substance, high ones a need for much substance. `NC(=O)c1ncn([C@@H]2O[C@H](CO)[C@@H](O)[C@H]2O)n1` [RIBAVIRIN]: a half-maximal effect (EC50) was put at 17 µM.

Source of the values: ChEMBL document CHEMBL3108691, “Structural investigation of cycloheptathiophene-3-carboxamide derivatives targeting influenza virus polymerase assembly” (J Med Chem, 2013).
